Laboratory results published in paper PMC8486139, “A new phenothiazine derivate is active against Clostridioides difficile and shows low cytotoxicity” (PLoS ONE, 2021).
Read-outs that look alike come from different tables or passages of the source.

What was measured:
C. difficile = conditions: previously shown; cited from earlier work
C. difficile ATCC 43255 [1] = experiment: Minimal inhibition concentration (MIC) in 96-well microtitre plates; format: cell-based, Clostridioides difficile; conditions: C. difficile ATCC 43255, 24 h anaerobic incubation
Excerpt: C. difficile ATCC 43255, previously isolated from an abdominal wound, was used to assess the anti-clostridioides activity of JBC 1847. The strain was stored in reinforced clostridial medium (Oxoid, Roskilde, Denmark) in 15% glycerol at -[…] until use and grown anaerobically on ChromID® C. difficile plates (bioMérieux, Ballerup, Denmark).

Caco-2 cell monolayers [2] = system: Caco-2 cell monolayers
[3] = system: Methicillin resistant Staphylococcus aureus (MRSA); conditions: cited from earlier work
C. difficile ATCC 43255 [4] = experiment: Minimum bactericidal concentration (MBC), plating from MIC wells; conditions: C. difficile ATCC 43255, ≥3 log reduction of inoculum
Description: Minimum bactericidal concentration (MIC) values were defined as the lowest concentrations of test compounds causing ≥3 log reductions of the initial cell inocula (∼ 10^5 CFU/mL in the final assay). Briefly, 100 μl from each well of the MIC assay (after incubation) were plates on ChromID® plates. After incubation for 24 h, viable counts were enumerated on ChromID® plates. Both the MIC and MBC were conducted with three biological replicates.

[5] = system: gastrointestinal microbiota; conditions: mice
Caco-2 cell monolayers [6] = experiment: LDH release assay; format: cell-based
Description: For analysis of the LDH activity, the samples taken from the apical compartment after the exposure experiment were diluted 5-fold and analyzed in the LDH assay according to manufacturer’s instructions. Briefly, the assay consisted of mixing the diluted samples with different assay reagents followed by incubation at room temperature for 30 min and the absorbance at 492 nm as a measure for LDH activity. A lysate of Caco-2 monolayers (prepared by suspending Caco-2 cell monolayers in purified water) was included as a positive control for maximal response in the assay.

Caco-2 cell monolayers [7] = experiment: MTS/PMS cell proliferation (metabolic activity) assay; format: cell-based
Description: The cell proliferation assay (MTS/PMS; [3-(4,5-dimethylthiazol-2-yl)-5-(3-carboxymethoxyphenyl)-2-(4-sulfophenyl)-2H-tetrazolium, inner salt; MTS] and an electron coupling reagent (phenazine methosulfate) PMS) assay was performed by incubating the Caco-2 cell monolayers with 400 μL of a PMS/MTS solution in the apical compartment and 500 μL supplemented HBSS in the basolateral chamber (according to manufacturer’s instructions) for 60 minutes at 37°C and circular rotation (50 rpm). After incubation, 2×100 μL samples were taken from each monolayer and the absorbance at 492 nm in a 96-well plate.

MRSA = conditions: cited from earlier work
fecal bacterial count = experiment: Four-day oral treatment: CFU per gram feces by 16S rRNA qPCR; format: in vivo; conditions: mice; for average CFU/g fecal sample after treatment: four days

CSc1ccc2c(c1)N(CCC1CCCCN1C)c1ccccc1S2 (stereo not shown) [Thioridazine]
antimicrobial activity against C. difficile (C. difficile): antimicrobial activity

CC(C)=CCCC(C)CC[N+](C)(C)CCCN1c2ccccc2Sc2ccccc21 (stereo not shown) [JBC 1847]
dose tolerated without any clinical signs of discomfort (NMRI female mice; mice, oral): up to 100 mg/kg bw | clinical score of discomfort (NMRI female mice; mouse, in vivo, 25 mg/kg): 1 | clinical score of discomfort (NMRI female mice; mouse, in vivo, 100 mg/kg): 0 | tolerance of two doses (NMRI female mice; mouse, in vivo, po, 100 mg/kg): tolerated well | MIC (C. difficile ATCC 43255 [1]): 4 µg/mL | effect on TEER (Caco-2 cell monolayers [2]; concentrations up to seven times MIC): did not affect the TEER negatively | cytotoxicity in Caco-2 cell-line assays (Caco-2 cell monolayers [2]; concentrations up to seven times the minimal bactericidal concentration): indication of toxicity was not observed | MIC against MRSA compared to the mother compound, promazine [3]: lower the minimal inhibition concentration (MIC) remarkably | MBC (C. difficile ATCC 43255 [4]): 4 µg/mL | tendency in Lactobacillus spp abundance ([5]; especially small intestine (Fig 5)): concentration-depended increase | consistency of the fecal material ([5]; exposure trial): No changes | LDH release compared to buffer control (Caco-2 cell monolayers [6]; 29 μg/mL (50 μM)): significantly higher | LDH release compared to buffer control (Caco-2 cell monolayers [6]; 29 μg/mL (50 μM), listed as JBC1 8473): statistically significant increase | LDH release compared to buffer control (Caco-2 cell monolayers [6]; 58.1 μg/ml in Fig 3): significantly higher | LDH release compared to buffer control (Caco-2 cell monolayers [6]; 58.1 μg/ml in Fig 3, listed as JBC1 8473): statistically significant increase | MTS/PMS response vs buffer controls (Caco-2 cell monolayers [7]; 29 μg/mL): not significantly reduced | MTS/PMS response (metabolic activity) vs buffer control (Caco-2 cell monolayers [7]; 58.1 μg/mL (100 μM)): statistically significant reduction | bacterial load of MRSA in wound model (MRSA): highly effective in decreasing the bacterial load | average CFU/g fecal sample after treatment (fecal bacterial count; 20 mg/kg bw): 4.4 ×10^9 CFU/g | average CFU/g fecal sample after treatment (fecal bacterial count; 100 mg/kg bw): 6.8 × 10^9 CFU/g | change in CFU/g fecal sample after treatment (fecal bacterial count; p = 0.51): no significant changes
